According to US10023566B2, “Dasatinib salts” (EGIS GYOGYSZERGYAR ZRT, priority 2014, dated 2018):
Counter-ions that a name gives are not always drawn.

Experiment: Water adsorption, DVS (dynamic vapor sorption) analysis
Assay type: physicochemical
Settings: after drying
From the text: As it is disclosed in WO2007/035874 paragraph [0096] dasatinib mono HCl includes a cavity or channel, which may be partially or fully occupied by solvent or a mixture of solvent. […] Further salts disclosed in the prior art also contain solvent adsorbed on the surface or in the form of solvate. These forms are nor suitable for pharmaceutical application. […] Therefore we carried out our comparative experiments between dasatinib base monohydrate and the new salts of the present invention.

Structure (SMILES)	water adsorption property (in words)
Cc1nc(Nc2ncc(C(=O)Nc3c(C)cccc3Cl)s2)cc(N2CCN(CCO)CC2)n1 [dasatinib mono HCl salt, N-(2-Chloro-6-methylphenyl)-2-[6-[4-(2-hydroxyethyl)piperazin-1-yl]-2-methylpyrimidin-4-ylamino]-1,3-thiazole-5-carboxamide]	changeable, especially after drying
Cc1nc(Nc2ncc(C(=O)Nc3c(C)cccc3Cl)s2)cc(N2CCN(CCO)CC2)n1 [dasatinib diHCl salt, N-(2-Chloro-6-methylphenyl)-2-[6-[4-(2-hydroxyethyl)piperazin-1-yl]-2-methylpyrimidin-4-ylamino]-1,3-thiazole-5-carboxamide]	tends to adsorb water
